Reference: PMC8398766, “Do Small Molecules Activate the TrkB Receptor in the Same Manner as BDNF? Limitations of Published TrkB Low Molecular Agonists and Screening for Novel TrkB Orthosteric Agonists” (Pharmaceuticals, 2021)
Converted amounts (≈) assume the structure as drawn. Where two headings read alike, the source gives them in different places.

Assays:
B2 = target: T1, B2 (Homo sapiens, UniProt P30411); test: BioPrint Profile Panel; format: binding; conditions: Agonist, Receptor, read-out: % of specific inhibition
T1 construct: purchased Eurofins Discovery (Cerep) BioPrint Profile Panel
Excerpt: (§1) The BioPrint® Profile Panel service offered by Eurofins Discovery (Poitiers, France) was chosen to perform selectivity analysis.

Ca2+ channel = test: BioPrint Profile Panel; format: binding; conditions: 10 μM, Antagonist, Ion Channel
Excerpt: as §1

[1] = tested on: Ca2+ channel (diltiazem site); test: BioPrint Profile Panel; format: binding; conditions: 10 μM; Antagonist (diltiazem site); Ion Channel
Excerpt: as §1

β2 = target: T2, β2 (Homo sapiens, UniProt P07550); test: BioPrint Profile Panel; format: binding; conditions: Antagonist, Receptor, read-out: % of specific inhibition
T2 construct: purchased Eurofins Discovery (Cerep) BioPrint Profile Panel
Excerpt: as §1

MT3 (ML2) = test: BioPrint Profile Panel; format: binding; conditions: 10 μM; Agonist; Receptor
Excerpt: as §1

CB1 = target: T3, CB1 (Homo sapiens, UniProt P21554); test: BioPrint Profile Panel; format: binding; conditions: Agonist, Receptor, read-out: % of specific inhibition
T3 construct: purchased Eurofins Discovery (Cerep) BioPrint Profile Panel
Excerpt: as §1

choline transporter = target: T4, choline transporter (Homo sapiens, UniProt Q9GZV3); test: BioPrint Profile Panel; format: binding; conditions: Antagonist, read-out: % of specific inhibition
T4 construct: purchased Eurofins Discovery (Cerep) BioPrint Profile Panel
Excerpt: as §1

5-HT transporter = target: T5, 5-HT transporter (Homo sapiens, UniProt P31645); test: BioPrint Profile Panel; format: binding; conditions: Antagonist, read-out: % of specific inhibition
T5 construct: purchased Eurofins Discovery (Cerep) BioPrint Profile Panel
Excerpt: as §1

motilin = target: T6, motilin (Homo sapiens, UniProt O43193); test: BioPrint Profile Panel; format: binding; conditions: Agonist, Receptor, read-out: % of specific inhibition
T6 construct: purchased Eurofins Discovery (Cerep) BioPrint Profile Panel
Excerpt: as §1

SKCa channel = test: BioPrint Profile Panel; format: binding; conditions: 10 μM; Antagonist; Ion Channel
Excerpt: as §1

MC4 = target: T7, MC4 (Homo sapiens, UniProt P32245); test: BioPrint Profile Panel; format: binding; conditions: Agonist, Receptor, read-out: % of specific inhibition
T7 construct: purchased Eurofins Discovery (Cerep) BioPrint Profile Panel
Excerpt: as §1

UT = target: T8, UT (Homo sapiens, UniProt Q9UKP6); test: BioPrint Profile Panel; format: binding; conditions: Agonist, Receptor, read-out: % of specific inhibition
T8 construct: purchased Eurofins Discovery (Cerep) BioPrint Profile Panel
Excerpt: as §1

β3 = target: T9, β3 (Homo sapiens, UniProt P13945); test: BioPrint Profile Panel; format: binding; conditions: Antagonist, Receptor, read-out: % of specific inhibition
T9 construct: purchased Eurofins Discovery (Cerep) BioPrint Profile Panel
Excerpt: as §1

M1 = target: T10, M1 (Homo sapiens, UniProt P11229); test: BioPrint Profile Panel; format: binding; conditions: Antagonist, Receptor, read-out: % of specific inhibition
T10 construct: purchased Eurofins Discovery (Cerep) BioPrint Profile Panel
Excerpt: as §1

Na+ channel = test: BioPrint Profile Panel; format: binding; conditions: 10 μM; Antagonist; Ion Channel
Excerpt: as §1

5-HT7 = target: T11, 5-HT7 (Homo sapiens, UniProt P34969); test: BioPrint Profile Panel; format: binding; conditions: Agonist, Receptor, read-out: % of specific inhibition
T11 construct: purchased Eurofins Discovery (Cerep) BioPrint Profile Panel
Excerpt: as §1

CCR2 = target: T12, CCR2 (Homo sapiens, UniProt P41597); test: BioPrint Profile Panel; format: binding; conditions: Agonist, Receptor, read-out: % of specific inhibition
T12 construct: purchased Eurofins Discovery (Cerep) BioPrint Profile Panel
Excerpt: as §1

GABAA1 (h) (α1, β2, γ2) = target: T13, GABAA1 (h) (α1, β2, γ2) (Homo sapiens, UniProt P14867+P47870); test: BioPrint Profile Panel; format: binding; conditions: Agonist, Receptor, read-out: % of specific inhibition
T13 construct: purchased Eurofins Discovery (Cerep) BioPrint Profile Panel
Excerpt: as §1

A2B = target: T14, A2B (Homo sapiens, UniProt P29275); test: BioPrint Profile Panel; format: binding; conditions: Antagonist, Receptor
T14 construct: purchased Eurofins Discovery (Cerep) BioPrint Profile Panel
Excerpt: as §1

D1 = target: T15, D1 (Homo sapiens, UniProt P21728); test: BioPrint Profile Panel; format: binding; conditions: Antagonist, Receptor, read-out: % of specific inhibition
T15 construct: purchased Eurofins Discovery (Cerep) BioPrint Profile Panel
Excerpt: as §1

[2] = target: T16, norepinephrine transporter (Homo sapiens, UniProt P23975); test: BioPrint Profile Panel; format: binding; conditions: Antagonist, read-out: % of specific inhibition
T16 construct: purchased Eurofins Discovery (Cerep) BioPrint Profile Panel
Excerpt: as §1

D3 = target: T17, D3 (Homo sapiens, UniProt P35462); test: BioPrint Profile Panel; format: binding; conditions: Antagonist, Receptor, read-out: % of specific inhibition
T17 construct: purchased Eurofins Discovery (Cerep) BioPrint Profile Panel
Excerpt: as §1

[3] = tested on: Ca2+ channel (verapamil site); test: BioPrint Profile Panel; format: binding; conditions: 10 μM; Antagonist (verapamil site); Ion Channel
Excerpt: as §1

V2 = target: T18, V2 (Homo sapiens, UniProt P30518); test: BioPrint Profile Panel; format: binding; conditions: Agonist, Receptor, read-out: % of specific inhibition
T18 construct: purchased Eurofins Discovery (Cerep) BioPrint Profile Panel
Excerpt: as §1

PCP = test: BioPrint Profile Panel; format: binding; conditions: 10 μM; Antagonist; Ion Channel
Excerpt: as §1

5-HT6 = target: T19, 5-HT6 (Homo sapiens, UniProt P50406); test: BioPrint Profile Panel; format: binding; conditions: Agonist, Receptor, read-out: % of specific inhibition
T19 construct: purchased Eurofins Discovery (Cerep) BioPrint Profile Panel
Excerpt: as §1

α1A = target: T20, α1A (Homo sapiens, UniProt P35348); test: BioPrint Profile Panel; format: binding; conditions: Antagonist, Receptor, read-out: % of specific inhibition
T20 construct: purchased Eurofins Discovery (Cerep) BioPrint Profile Panel
Excerpt: as §1

dopamine transporter = target: T21, dopamine transporter (Homo sapiens, UniProt Q01959); test: BioPrint Profile Panel; format: binding; conditions: Antagonist, read-out: % of specific inhibition
T21 construct: purchased Eurofins Discovery (Cerep) BioPrint Profile Panel
Excerpt: as §1

TNF-α = test: BioPrint Profile Panel; format: binding; conditions: 10 μM; Agonist; Receptor
Excerpt: as §1

AMPA = test: BioPrint Profile Panel; format: binding; conditions: 10 μM; Agonist; Ion Channel
Excerpt: as §1

5-HT3 = target: T22, 5-HT3 (Homo sapiens, UniProt P46098); test: BioPrint Profile Panel; format: binding; conditions: Antagonist, Ion Channel, read-out: % of specific inhibition
T22 construct: purchased Eurofins Discovery (Cerep) BioPrint Profile Panel
Excerpt: as §1

kappa = test: BioPrint Profile Panel; format: binding; conditions: 10 μM; Agonist; Receptor
Excerpt: as §1

M2 = target: T23, M2 (Homo sapiens, UniProt P08172); test: BioPrint Profile Panel; format: binding; conditions: Antagonist, Receptor, read-out: % of specific inhibition
T23 construct: purchased Eurofins Discovery (Cerep) BioPrint Profile Panel
Excerpt: as §1

H2 = target: T24, H2 (Homo sapiens, UniProt P25021); test: BioPrint Profile Panel; format: binding; conditions: Antagonist, Receptor, read-out: % of specific inhibition
T24 construct: purchased Eurofins Discovery (Cerep) BioPrint Profile Panel
Excerpt: as §1

D2S = target: T25, D2S (Homo sapiens, UniProt P14416); test: BioPrint Profile Panel; format: binding; conditions: Agonist, Receptor, read-out: % of specific inhibition
T25 construct: purchased Eurofins Discovery (Cerep) BioPrint Profile Panel
Excerpt: as §1

NOP (ORL1) = target: T26, NOP (ORL1) (Homo sapiens, UniProt P41146); test: BioPrint Profile Panel; format: binding; conditions: Agonist, Receptor, read-out: % of specific inhibition
T26 construct: purchased Eurofins Discovery (Cerep) BioPrint Profile Panel
Excerpt: as §1

GR = target: T27, GR (Homo sapiens, UniProt P04150); test: BioPrint Profile Panel; format: binding; conditions: Agonist, Receptor, read-out: % of specific inhibition
T27 construct: purchased Eurofins Discovery (Cerep) BioPrint Profile Panel
Excerpt: as §1

5-HT2C = target: T28, 5-HT2C (Homo sapiens, UniProt P28335); test: BioPrint Profile Panel; format: binding; conditions: Agonist, Receptor, read-out: % of specific inhibition
T28 construct: purchased Eurofins Discovery (Cerep) BioPrint Profile Panel
Excerpt: as §1

PAF = target: T29, PAF (Homo sapiens, UniProt P25105); test: BioPrint Profile Panel; format: binding; conditions: Agonist, Receptor, read-out: % of specific inhibition
T29 construct: purchased Eurofins Discovery (Cerep) BioPrint Profile Panel
Excerpt: as §1

MC3 = target: T30, MC3 (Homo sapiens, UniProt P41968); test: BioPrint Profile Panel; format: binding; conditions: Agonist, Receptor, read-out: % of specific inhibition
T30 construct: purchased Eurofins Discovery (Cerep) BioPrint Profile Panel
Excerpt: as §1

TrkB = conditions: cited from earlier work
physchem = conditions: 25 °C, pH 7.4, aqueous buffer, kinetic from dmso stock, pH 7.4, 4 h
TrkB receptor = target: T31, TrkB receptor (Rattus norvegicus, UniProt Q63604); test: ELFI TrkB phosphorylation, orthosteric agonist mode, SN56 T48 cell line; format: cell-based; conditions: TrkB phosphorylation (Tyr706), 15 min
T31 construct: host or cells: SN56 T48 cell line

[4] = no orthosteric activity given as 0

T31 sequence (Q63604 32-821): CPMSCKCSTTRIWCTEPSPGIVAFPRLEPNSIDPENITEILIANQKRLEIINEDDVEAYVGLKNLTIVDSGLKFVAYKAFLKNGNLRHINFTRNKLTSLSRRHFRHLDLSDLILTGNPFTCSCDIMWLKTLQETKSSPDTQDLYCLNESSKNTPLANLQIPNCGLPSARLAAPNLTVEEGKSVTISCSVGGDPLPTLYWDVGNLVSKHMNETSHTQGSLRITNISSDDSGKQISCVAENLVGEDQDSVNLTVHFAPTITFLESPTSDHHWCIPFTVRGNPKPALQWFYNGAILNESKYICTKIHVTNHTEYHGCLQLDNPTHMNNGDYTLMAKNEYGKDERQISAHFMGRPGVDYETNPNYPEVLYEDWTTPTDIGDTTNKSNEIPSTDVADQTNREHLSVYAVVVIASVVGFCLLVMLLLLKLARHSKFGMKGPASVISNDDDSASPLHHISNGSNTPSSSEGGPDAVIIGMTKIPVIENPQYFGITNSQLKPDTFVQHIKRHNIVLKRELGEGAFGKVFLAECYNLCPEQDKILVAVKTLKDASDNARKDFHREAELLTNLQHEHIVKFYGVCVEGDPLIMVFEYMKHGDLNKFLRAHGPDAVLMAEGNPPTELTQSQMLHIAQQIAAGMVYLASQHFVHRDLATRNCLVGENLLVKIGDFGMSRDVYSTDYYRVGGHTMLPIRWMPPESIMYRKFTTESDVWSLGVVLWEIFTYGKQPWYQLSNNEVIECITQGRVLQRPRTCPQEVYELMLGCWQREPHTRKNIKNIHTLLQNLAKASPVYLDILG
T14 sequence (P29275 whole entry): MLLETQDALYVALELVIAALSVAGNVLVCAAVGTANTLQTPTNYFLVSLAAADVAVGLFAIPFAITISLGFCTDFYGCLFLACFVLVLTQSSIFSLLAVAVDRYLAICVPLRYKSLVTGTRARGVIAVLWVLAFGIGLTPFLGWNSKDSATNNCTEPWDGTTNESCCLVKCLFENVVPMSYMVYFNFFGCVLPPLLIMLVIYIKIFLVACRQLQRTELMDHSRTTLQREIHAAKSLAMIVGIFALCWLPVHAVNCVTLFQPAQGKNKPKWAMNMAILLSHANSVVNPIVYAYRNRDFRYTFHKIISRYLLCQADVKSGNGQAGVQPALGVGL
T9 sequence (P13945 whole entry): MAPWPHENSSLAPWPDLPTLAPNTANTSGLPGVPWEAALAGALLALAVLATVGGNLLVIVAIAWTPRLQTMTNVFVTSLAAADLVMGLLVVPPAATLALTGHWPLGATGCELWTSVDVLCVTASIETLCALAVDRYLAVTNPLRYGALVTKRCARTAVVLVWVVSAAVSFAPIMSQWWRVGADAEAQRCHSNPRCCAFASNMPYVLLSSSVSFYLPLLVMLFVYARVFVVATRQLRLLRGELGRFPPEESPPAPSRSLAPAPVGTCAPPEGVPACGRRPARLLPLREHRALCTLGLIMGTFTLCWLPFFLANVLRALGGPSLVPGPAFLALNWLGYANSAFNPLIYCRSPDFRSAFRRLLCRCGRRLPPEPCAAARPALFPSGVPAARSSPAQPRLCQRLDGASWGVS
T12 sequence (P41597 whole entry): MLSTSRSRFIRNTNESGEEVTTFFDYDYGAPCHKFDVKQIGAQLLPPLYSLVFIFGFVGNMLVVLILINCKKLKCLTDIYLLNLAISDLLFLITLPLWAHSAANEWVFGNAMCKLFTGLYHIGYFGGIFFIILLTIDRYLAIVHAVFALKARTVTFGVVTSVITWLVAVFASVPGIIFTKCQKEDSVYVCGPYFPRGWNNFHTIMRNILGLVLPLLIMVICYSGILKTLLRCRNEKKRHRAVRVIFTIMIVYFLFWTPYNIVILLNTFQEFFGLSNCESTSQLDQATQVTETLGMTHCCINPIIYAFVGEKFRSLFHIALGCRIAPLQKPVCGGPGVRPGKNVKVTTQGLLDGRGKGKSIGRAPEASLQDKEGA
T25 sequence (P14416 1-414 isoform P14416-2): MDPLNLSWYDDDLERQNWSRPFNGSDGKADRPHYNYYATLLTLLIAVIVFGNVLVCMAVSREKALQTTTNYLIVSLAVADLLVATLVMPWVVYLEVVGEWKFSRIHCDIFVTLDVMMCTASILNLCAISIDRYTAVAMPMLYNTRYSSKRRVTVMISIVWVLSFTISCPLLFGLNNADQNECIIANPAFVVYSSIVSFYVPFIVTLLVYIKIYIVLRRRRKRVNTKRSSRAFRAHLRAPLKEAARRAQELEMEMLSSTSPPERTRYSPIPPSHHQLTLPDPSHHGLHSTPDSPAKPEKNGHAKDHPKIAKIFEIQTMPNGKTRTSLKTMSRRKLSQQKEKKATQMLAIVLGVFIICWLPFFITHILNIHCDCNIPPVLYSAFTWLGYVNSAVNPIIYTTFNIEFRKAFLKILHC
T23 sequence (P08172 whole entry): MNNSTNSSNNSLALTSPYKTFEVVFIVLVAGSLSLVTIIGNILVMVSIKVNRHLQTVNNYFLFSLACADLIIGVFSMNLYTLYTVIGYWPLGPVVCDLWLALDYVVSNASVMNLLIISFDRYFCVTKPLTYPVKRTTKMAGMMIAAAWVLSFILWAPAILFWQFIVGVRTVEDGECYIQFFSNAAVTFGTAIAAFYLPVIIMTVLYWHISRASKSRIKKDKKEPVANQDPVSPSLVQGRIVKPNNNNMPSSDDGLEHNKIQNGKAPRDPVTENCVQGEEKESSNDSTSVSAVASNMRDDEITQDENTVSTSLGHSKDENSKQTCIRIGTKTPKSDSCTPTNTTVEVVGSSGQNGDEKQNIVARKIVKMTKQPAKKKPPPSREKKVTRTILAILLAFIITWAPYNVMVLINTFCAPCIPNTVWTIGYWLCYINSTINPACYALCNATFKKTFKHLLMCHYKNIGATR
T7 sequence (P32245 whole entry): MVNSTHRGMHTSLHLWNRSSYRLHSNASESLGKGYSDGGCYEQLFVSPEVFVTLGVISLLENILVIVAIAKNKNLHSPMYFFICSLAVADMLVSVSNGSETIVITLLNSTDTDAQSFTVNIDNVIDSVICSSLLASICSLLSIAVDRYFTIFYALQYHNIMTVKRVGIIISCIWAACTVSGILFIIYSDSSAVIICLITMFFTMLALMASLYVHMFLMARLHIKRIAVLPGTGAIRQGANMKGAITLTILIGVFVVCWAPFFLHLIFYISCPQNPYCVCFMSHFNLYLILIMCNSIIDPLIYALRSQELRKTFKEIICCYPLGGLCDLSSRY
T15 sequence (P21728 whole entry): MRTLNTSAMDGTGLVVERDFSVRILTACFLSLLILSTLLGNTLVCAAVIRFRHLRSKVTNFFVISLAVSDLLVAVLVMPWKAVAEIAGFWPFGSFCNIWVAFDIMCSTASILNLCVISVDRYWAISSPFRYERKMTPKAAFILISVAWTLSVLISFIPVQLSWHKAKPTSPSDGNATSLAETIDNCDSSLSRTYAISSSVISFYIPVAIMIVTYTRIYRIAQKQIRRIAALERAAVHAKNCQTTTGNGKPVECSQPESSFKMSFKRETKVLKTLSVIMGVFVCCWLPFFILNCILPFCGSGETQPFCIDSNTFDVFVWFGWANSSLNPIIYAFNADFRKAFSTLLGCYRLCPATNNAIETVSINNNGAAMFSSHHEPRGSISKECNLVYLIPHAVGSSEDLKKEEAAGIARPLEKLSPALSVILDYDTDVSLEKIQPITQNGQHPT
T6 sequence (O43193 whole entry): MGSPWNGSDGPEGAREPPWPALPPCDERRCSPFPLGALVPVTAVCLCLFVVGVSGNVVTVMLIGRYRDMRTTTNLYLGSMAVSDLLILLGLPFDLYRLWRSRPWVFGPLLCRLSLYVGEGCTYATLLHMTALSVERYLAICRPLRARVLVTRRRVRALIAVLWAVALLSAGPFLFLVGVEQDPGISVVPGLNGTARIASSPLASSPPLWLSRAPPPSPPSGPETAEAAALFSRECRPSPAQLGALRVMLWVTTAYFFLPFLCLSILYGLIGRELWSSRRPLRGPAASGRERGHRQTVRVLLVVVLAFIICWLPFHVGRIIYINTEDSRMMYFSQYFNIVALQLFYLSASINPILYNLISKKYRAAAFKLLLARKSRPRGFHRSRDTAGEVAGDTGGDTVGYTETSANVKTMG
T26 sequence (P41146 whole entry): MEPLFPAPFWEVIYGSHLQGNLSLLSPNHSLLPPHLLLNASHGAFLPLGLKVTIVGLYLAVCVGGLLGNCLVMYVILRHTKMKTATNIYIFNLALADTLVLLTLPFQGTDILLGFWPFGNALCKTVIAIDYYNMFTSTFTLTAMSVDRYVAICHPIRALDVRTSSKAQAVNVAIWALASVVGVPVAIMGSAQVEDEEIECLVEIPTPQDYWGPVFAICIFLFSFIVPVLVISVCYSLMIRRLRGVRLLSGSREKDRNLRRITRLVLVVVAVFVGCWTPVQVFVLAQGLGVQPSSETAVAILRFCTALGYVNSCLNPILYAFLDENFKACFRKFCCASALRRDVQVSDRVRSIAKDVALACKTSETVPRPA
T29 sequence (P25105 whole entry): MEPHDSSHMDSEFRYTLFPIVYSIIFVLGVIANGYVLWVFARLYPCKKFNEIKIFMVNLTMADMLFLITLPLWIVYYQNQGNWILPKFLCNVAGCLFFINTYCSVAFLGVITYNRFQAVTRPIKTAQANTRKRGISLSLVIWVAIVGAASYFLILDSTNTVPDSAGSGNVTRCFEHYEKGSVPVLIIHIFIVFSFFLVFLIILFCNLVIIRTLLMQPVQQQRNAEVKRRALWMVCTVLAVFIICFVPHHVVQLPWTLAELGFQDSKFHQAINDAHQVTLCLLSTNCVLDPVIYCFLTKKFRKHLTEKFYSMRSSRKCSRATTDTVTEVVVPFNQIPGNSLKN

Molecule: O=c1cc(-c2ccccc2)oc2c(O)c(O)ccc12 [7,8-DHF, 7,8-dihydroxyflavone]
- inhibition at 10 µM (B2): -6%
- % of specific inhibition (Ca2+ channel; first unspecified Ca2+ channel entry): -4%
- % of specific inhibition (Ca2+ channel; second unspecified Ca2+ channel entry): -6%
- % of specific inhibition [1]: -15%
- inhibition at 10 µM (β2): -5%
- % Inhibition of Control Specific Binding (MT3 (ML2)): 86%
- inhibition at 10 µM (CB1): 1%
- inhibition at 10 µM (choline transporter): 5%
- inhibition at 10 µM (5-HT transporter): -4%
- inhibition at 10 µM (motilin): -2%
- % of specific inhibition (SKCa channel): 4%
- inhibition at 10 µM (MC4): -5%
- inhibition at 10 µM (UT): -9%
- inhibition at 10 µM (β3): -25%
- inhibition at 10 µM (M1): -4%
- % of specific inhibition (Na+ channel): -11%
- inhibition at 10 µM (5-HT7): 4%
- inhibition at 10 µM (CCR2): 4%
- inhibition at 10 µM (GABAA1 (h) (α1, β2, γ2)): 12%
- % Inhibition of Control Specific Binding (A2B; 10 μM): 78.3%
- inhibition at 10 µM (A2B; read-out: % Inhibition of Control Specific Binding): 78%
- inhibition at 10 µM (D1): -4%
- inhibition at 10 µM [2]: -1%
- inhibition at 10 µM (D3): 2%
- % of specific inhibition [3]: 2%
- inhibition at 10 µM (V2): -2%
- % of specific inhibition (PCP): -3%
- inhibition at 10 µM (5-HT6): -3%
- inhibition at 10 µM (α1A): 2%
- inhibition at 10 µM (dopamine transporter): 4%
- % of specific inhibition (TNF-α): 2%
- % of specific inhibition (AMPA): 7%
- inhibition at 10 µM (5-HT3): -2%
- % of specific inhibition (kappa): 3%
- inhibition at 10 µM (M2): -2%
- inhibition at 10 µM (H2): -37%
- inhibition at 10 µM (D2S): -15%
- inhibition at 10 µM (NOP (ORL1)): 11%
- inhibition at 10 µM (GR): -1%
- inhibition at 10 µM (5-HT2C): -4%
- inhibition at 10 µM (PAF): -20%
- inhibition at 10 µM (MC3): -5%
- Kd (TrkB; ref Jang et al. (2010) [12], read-out: Binding affinity): 15.4 nM
- Kd (TrkB; ref Liu et al. (2014) [35], read-out: Binding affinity): 12.1 nM
- solubility kinetic at 4 h (physchem): 303 µM (≈ 77 µg/mL)

Molecule: C=CC(C)(C)c1[nH]c2ccccc2c1C1=C(O)C(=O)C(c2c[nH]c3c(CC=C(C)C)cccc23)=C(O)C1=O [DMAQ-B1]
- EC50 (TrkB receptor; [4]): 5000 nM

B1: BDNF: Brain-derived neurotrophic factor, endogenous TrkB receptor agonist (protein, UniProt P23560 19-247, looked up)
Neurotrophic factor BDNF …: APMKEANIRGQGGLAYPGVRTHGTLESVNGPKAGSRGLTSLADTFEHVIEELLDEDQKVRPNEENNKDADLYTSRVMLSSQVPLEPPLLFLLEEYKNYLDAANMSMRVRRHSDPARRGELSVCDSISEWVTAADKKTAVDMSGGTVTVLEKVPVSKGQLKQYFYETKCNPMGYTKEGCRGIDKRHWNSQCRTTQSYVRALTMDSKKRIGWRFIRIDTSCVCTLTIKRGR
- EC50 (TrkB receptor): 3.7 nM
- EC50 (TrkB receptor; [4]): 4 nM
- Kd (TrkB; SPR, ref [12],[35], read-out: Kd): 1.7 nM
